Laboratory results published in ChEMBL document CHEMBL5620401, “Design, synthesis, and biological evaluation of novel spirocyclic compounds as potential anti-glioblastoma agents” (Eur J Med Chem, 2023).
Calls of active or inactive are those of the source. The rule behind the calls is not given here.

Tests used:
U-87 MG [1] = experiment: Antiproliferative activity against human U87 cells assessed as cell viability measured after 72 hrs by MTT assay; type: functional, cell-based, U-87MG ATCC
U-251 [2] = experiment: Antiproliferative activity against human U-251 cells assessed as cell viability measured after 72 hrs by MTT assay; type: functional, cell-based; conditions: for IC50: U-251, 72 h
U-251 [3] = experiment: Effect on RIPK3 protein expression in human U-251 cells at 1 to 5 uM measured after 48 hrs by Western blot analysis; type: functional, cell-based; conditions: dose 1-5 µM
U-251 [4] = experiment: Induction of apoptosis in human U-251 cells assessed as early apoptotic cells at 1 uM measured after 48 hrs by Annexin V/PI analysis (reference value: 3.1%); type: functional
[5] = Toxicity in BALB/c mouse xenografted with human U-251 cells assessed as toxicity at 60 mg/kg, ip treated for 5 weeks; type: organism-based; conditions: in vivo, 840 h
U-251 [6] = experiment: Induction of apoptosis in human U-251 cells assessed as necrotic cells at 2.5 uM measured after 48 hrs by Annexin V/PI analysis (reference value: 0%); type: functional
U-251 [7] = experiment: Anti-GBM effect in human U-251 cells xenografted in BALB/c mouse model assessed as reduction in number of Ki67-positive cells in the tumor at 60 mg/kg, ip treated for 5 weeks by immunohistochemical staining analysis; type: functional, organism-based
U-251 [8] = experiment: Induction of apoptosis in human U-251 cells assessed as increase in p53 expression measured after 48 hrs by Western blot analysis; type: functional, cell-based; conditions: dose 1-5 µM
U-251 [9] = experiment: Inhibition of colony formation in human U-251 cells; type: functional, cell-based
U-251 [10] = experiment: Induction of apoptosis in human U-251 cells assessed as late apoptotic cells at 5 uM measured after 48 hrs by Annexin V/PI analysis (reference value: 0.7%); type: functional
U-251 [11] = experiment: Increase in BCL2 homologous antagonist/killer (Bak) expression human U-251 cells measured at 1 to 5 uM after 48 hrs by Western blot analysis; type: functional, cell-based; conditions: dose 1-5 µM
U-251 [12] = experiment: Effect on RIPK1 protein expression in human U-251 cells at 1 to 5 uM measured after 48 hrs by Western blot analysis; type: functional, cell-based; conditions: dose 1-5 µM
[13] = Toxicity in BALB/c mouse xenografted with human U-251 cells assessed as pathological changes in heart at 60 mg/kg, ip treated for 5 weeks by hematoxylin and eosin staining based assay; type: organism-based; conditions: in vivo, 840 h
U-251 [14] = experiment: Induction of apoptosis in human U-251 cells assessed as late apoptotic cells at 1 uM measured after 48 hrs by Annexin V/PI analysis (reference value: 0.7%); type: functional
[15] = Permeability coefficient of compound by lipid-PAMPA assay; type: ADME; conditions: read-out: Peff
U-251 [16] = experiment: Induction of apoptosis in human U-251 cells assessed as necrotic cells at 1 uM measured after 48 hrs by Annexin V/PI analysis (reference value: 0%); type: functional
U-251 [17] = experiment: Effect on caspase 8 protein expression in human U-251 cells at 1 to 5 uM measured after 48 hrs by Western blot analysis; type: functional, cell-based; conditions: dose 1-5 µM
U-251 [18] = experiment: Decrease in SIRT1 gene expression in human U-251 cells at 5 uM measured after 48 hrs incubation by RT-qPCR analysis; type: functional, cell-based
U-251 [19] = experiment: Induction of apoptosis in human U-251 cells assessed as early apoptotic cells at 5 uM measured after 48 hrs by Annexin V/PI analysis (reference value: 3.1%); type: functional
U-251 [20] = experiment: Increase in caspase 3 expression human U-251 cells measured at 1 to 5 uM after 48 hrs by Western blot analysis; type: functional, cell-based; conditions: dose 1-5 µM
U-251 [21] = experiment: Induction of apoptosis in human U-251 cells assessed as increase in BCL2 homologous antagonist/killer (Bak) expression measured after 48 hrs by Western blot analysis; type: functional, cell-based; conditions: dose 1-5 µM
[22] = Toxicity in BALB/c mouse xenografted with human U-251 cells assessed as pathological changes in kidney at 60 mg/kg, ip treated for 5 weeks by hematoxylin and eosin staining based assay; type: organism-based; conditions: in vivo, 840 h
U-251 [23] = experiment: Effect on ZBP1 protein expression in human U-251 cells at 1 to 5 uM measured after 48 hrs by Western blot analysis; type: functional, cell-based; conditions: dose 1-5 µM
U-251 [24] = experiment: Induction of apoptosis in human U-251 cells assessed as viable cells at 2.5 uM measured after 48 hrs by Annexin V/PI analysis (reference value: 96.2%); type: functional; conditions: read-out: Activity
[25] = Toxicity in BALB/c mouse xenografted with human U-251 cells assessed as pathological changes in spleen at 60 mg/kg, ip treated for 5 weeks by hematoxylin and eosin staining based assay; type: organism-based; conditions: in vivo, 840 h
[26] = Toxicity in BALB/c mouse xenografted with human U-251 cells assessed as body weight change at 60 mg/kg, ip treated for 5 weeks; type: organism-based; conditions: in vivo, 840 h
U-251 [27] = experiment: Effect on phosphorylated-[…] protein expression in human U-251 cells at 1 to 5 uM measured after 48 hrs by Western blot analysis; type: functional, cell-based; conditions: dose 1-5 µM
[28] = Toxicity in BALB/c mouse xenografted with human U-251 cells assessed as pathological changes in lung at 60 mg/kg, ip treated for 5 weeks by hematoxylin and eosin staining based assay; type: organism-based; conditions: in vivo, 840 h
U-251 [29] = experiment: Increase in acetylated p53 level in SIRT1 overexpressed human U-251 cells at 1 to 5 uM by Western blot analysis; type: functional, cell-based; conditions: dose 1-5 µM
U-251 [30] = experiment: Effect on GSDMD protein expression in human U-251 cells at 1 to 5 uM measured after 48 hrs by Western blot analysis; type: functional, cell-based; conditions: dose 1-5 µM
[31] = Toxicity in BALB/c mouse xenografted with human U-251 cells assessed as pathological changes in liver at 60 mg/kg, ip treated for 5 weeks by hematoxylin and eosin staining based assay; type: organism-based; conditions: in vivo, 840 h
U-251 [32] = experiment: Anti-GBM effect in human U-251 cells xenografted in BALB/c mouse model assessed as inhibition of tumor growth at 60 mg/kg, ip treated for 5 weeks; type: functional, organism-based
U-251 [33] = experiment: Induction of apoptosis in human U-251 cells assessed as increase in caspase-3 expression measured after 48 hrs by Western blot analysis; type: functional, cell-based; conditions: dose 1-5 µM
U-251 [34] = experiment: Induction of apoptosis in human U-251 cells assessed as viable cells at 1 uM measured after 48 hrs by Annexin V/PI analysis (reference value: 96.2%); type: functional; conditions: read-out: Activity
U-251 [35] = experiment: Decrease in SIRT1 protein expression in human U-251 cells at 1 to 5 uM by Western blot analysis; type: functional, cell-based; conditions: dose 1-5 µM
U-251 [36] = experiment: Induction of apoptosis in human U-251 cells assessed as late apoptotic cells at 2.5 uM measured after 48 hrs by Annexin V/PI analysis (reference value: 0.7%); type: functional
U-251 [37] = experiment: Induction of apoptosis in human U-251 cells assessed as necrotic cells at 5 uM measured after 48 hrs by Annexin V/PI analysis (reference value: 0%); type: functional
U-251 [38] = experiment: Increase in acetylated p53 level in human U-251 cells at 1 to 5 uM by Western blot analysis; type: functional, cell-based; conditions: dose 1-5 µM
U-251 [39] = experiment: Induction of apoptosis in human U-251 cells assessed as viable cells at 5 uM measured after 48 hrs by Annexin V/PI analysis (reference value: 96.2%); type: functional; conditions: read-out: Activity
U-251 [40] = experiment: Induction of apoptosis in human U-251 cells assessed as early apoptotic cells at 2.5 uM measured after 48 hrs by Annexin V/PI analysis (reference value: 3.1%); type: functional
U-251 [41] = experiment: Antiproliferative activity against human U-251 cells assessed as inhibition rate at 20 uM measured after 72 hrs by MTT assay relative to control; type: functional
U-87 MG [42] = experiment: Antiproliferative activity against human U87 cells assessed as inhibition rate at 20 uM measured after 72 hrs by MTT assay relative to control; type: functional, U-87MG ATCC

O=C(/C=C/c1ccc(C(=O)N2CCN(Cc3ccccc3)C23COC3)cc1)c1cccnc1
IC50 (U-87 MG [1]): 7.3 µM
IC50 (U-251 [2]): 5.5 µM

COc1cc(C(=O)/C=C/c2ccc(C(=O)N3CCN(Cc4ccccc4)C34COC4)cc2)cc(OC)c1OC
Activity (U-251 [3]): inactive
Activity (U-251 [4]): 11.8%
Activity [5]: Non-Toxic
Activity (U-251 [6]): 0.2%
Activity (U-251 [7]): Active
IC50 (U-87 MG [1]): 2.1 µM
Activity (U-251 [8]): Dose-Dependent Effect
inhibition (U-251 [9]): Dose-Dependent Effect
Activity (U-251 [10]): 67.5%
Activity (U-251 [11]): inactive
IC50 (U-251 [2]): 0.9 µM
Activity (U-251 [12]): inactive
Activity [13]: Non-Toxic
Activity (U-251 [14]): 8.2%
Papp [15]: 13.1 ×10⁻⁶ cm/s
Activity (U-251 [16]): 0.2%
Activity (U-251 [17]): inactive
Activity (U-251 [18]): Active
Activity (U-251 [19]): 17.7%
Activity (U-251 [20]): inactive
Activity (U-251 [21]): Dose-Dependent Effect
Activity [22]: Non-Toxic
Activity (U-251 [23]): inactive
viability at 2.5 µM (U-251 [24]): 74.2%
Activity [25]: Non-Toxic
Activity [26]: Non-Toxic
Activity (U-251 [27]): inactive
Activity [28]: Non-Toxic
Activity (U-251 [29]): inactive
Activity (U-251 [30]): inactive
Activity [31]: Non-Toxic
Activity (U-251 [32]): Active
Activity (U-251 [33]): Dose-Dependent Effect
viability at 1 µM (U-251 [34]): 79.8%
Activity (U-251 [35]): Active
Activity (U-251 [36]): 9.2%
Activity (U-251 [37]): 0.1%
Activity (U-251 [38]): Active
viability at 5 µM (U-251 [39]): 14.7%
Activity (U-251 [40]): 16.4%

COc1cc(C(=O)/C=C/c2cccc(C(=O)N3CCN(Cc4ccccc4)C34COC4)c2)cc(OC)c1OC
IC50 (U-87 MG [1]): 2.2 µM
IC50 (U-251 [2]): 1.1 µM

COc1ccc(C(=O)/C=C/c2ccc(C(=O)N3CCN(Cc4ccccc4)C34COC4)cc2)cc1OC
IC50 (U-87 MG [1]): 3.7 µM
IC50 (U-251 [2]): 1.8 µM

N#Cc1cccc(C(=O)/C=C/c2ccc(C(=O)N3CCN(Cc4ccccc4)C34COC4)cc2)c1
IC50 (U-87 MG [1]): 6.1 µM
IC50 (U-251 [2]): 5.4 µM

COc1cc(/C=C/C(=O)c2ccc(C(=O)N3CCN(Cc4ccccc4)C34COC4)s2)cc(OC)c1OC
IC50 (U-87 MG [1]): 2 µM
IC50 (U-251 [2]): 1.4 µM

COc1cc(C(=O)CCc2ccc(C(=O)N3CCN(Cc4ccccc4)C34COC4)cc2)cc(OC)c1OC
Activity (U-251 [2]): Active

COc1cc(C(=O)/C=C/c2ccccc2C(=O)N2CCN(Cc3ccccc3)C23COC3)cc(OC)c1OC
IC50 (U-87 MG [1]): 5.5 µM
IC50 (U-251 [2]): 4.9 µM

O=C(CBr)N1CCN(Cc2ccccc2)C12COC2
IC50 (U-87 MG [1]): 14.6 µM
IC50 (U-251 [2]): 13.9 µM
inhibition at 20 µM (U-251 [41]): 63.9%
inhibition at 20 µM (U-87 MG [42]): 74.3%
Papp [15]: 26.9 ×10⁻⁶ cm/s
